From PubChem BioAssay AID330 (DTP/NCI, 2004)
Several values for one entry are separate records, joined by “and”; a condition that tells them apart may be missing. Equal entries are not always repeated. Inconclusive results and toxic doses are left out.

System: P388 leukemia ip, CD2F1 mice, survival T/C
Experiment: NCI In Vivo Anticancer Drug Screen. Data for tumor model P388 Leukemia (intraperitoneal) in CD2F1 (CDF1) mice
Conditions: endpoint: median survival time, higher = longer survival
Method in brief: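 Mice carrying the transplanted tumor received test compound or vehicle. Survival was recorded in each group, and the value is the treated-group measurement divided by that of the vehicle-treated control group.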

[1] = dose: 100.0 mg/kg/injection, schedule: Q04DX002 (ip), vehicle: saline with Tween-80
[2] = dose: 50.0 mg/kg/injection, schedule: Q01DX005 (ip), vehicle: saline with Tween-80
[3] = dose: 100.0 mg/kg/injection, schedule: Q01DX005 (ip), vehicle: saline with Tween-80
[4] = dose: 200.0 mg/kg/injection, schedule: Q01DX005 (ip), vehicle: saline with Tween-80

O=C(CCl)NC(Cc1ccc(N(CCCl)CCCl)cc1)C(=O)O (stereo not drawn)
T/C (dose: 0.25 mg/kg/injection, schedule: Q01DX009 (ip), vehicle: Klucel (hydroxypropylcellulose) (HPC)): 113 % of control and 96 % of control
T/C (dose: 0.5 mg/kg/injection, schedule: Q01DX009 (ip), vehicle: Klucel (hydroxypropylcellulose) (HPC)): 109 % of control and 115 % of control
T/C (dose: 1.0 mg/kg/injection, schedule: Q01DX009 (ip), vehicle: Klucel (hydroxypropylcellulose) (HPC)): 102 % of control and 115 % of control
T/C (dose: 2.0 mg/kg/injection, schedule: Q01DX001 (ip), vehicle: Klucel (hydroxypropylcellulose) (HPC)): 107 % of control
T/C (dose: 4.0 mg/kg/injection, schedule: Q01DX001 (ip), vehicle: Klucel (hydroxypropylcellulose) (HPC)): 108 % of control
T/C (dose: 8.0 mg/kg/injection, schedule: Q01DX001 (ip), vehicle: Klucel (hydroxypropylcellulose) (HPC)): 119 % of control
T/C (dose: 128.0 mg/kg/injection, schedule: Q01DX009 (ip), vehicle: Klucel (hydroxypropylcellulose) (HPC)): 166 % of control
T/C (dose: 256.0 mg/kg/injection, schedule: Q01DX009 (ip), vehicle: Klucel (hydroxypropylcellulose) (HPC)): 223 % of control

COC(=O)C1C(CO)ON2CCC(OC)(OC)C12 (stereo not drawn)
T/C (dose: 50.0 mg/kg/injection, schedule: Q01DX005 (ip), vehicle: saline): 99 % of control
T/C (dose: 100.0 mg/kg/injection, schedule: Q01DX005 (ip), vehicle: saline): 92 % of control
T/C (dose: 200.0 mg/kg/injection, schedule: Q01DX005 (ip), vehicle: saline): 96 % of control

OC1(c2ccncc2)C=CCC1 (stereo not drawn)
T/C [1]: 95 % of control

C/C=C1/C(=O)O[C@]23C=C[C@@H]4C(C(=O)OC)=CO[C@H](O[C@@H]12)[C@@H]43
T/C (dose: 1.25 mg/kg/injection, schedule: Q01DX009 (ip), vehicle: Klucel (hydroxypropylcellulose) (HPC)): 96 % of control
T/C (dose: 2.5 mg/kg/injection, schedule: Q01DX009 (ip), vehicle: Klucel (hydroxypropylcellulose) (HPC)): 98 % of control
T/C (dose: 5.0 mg/kg/injection, schedule: Q01DX009 (ip), vehicle: Klucel (hydroxypropylcellulose) (HPC)): 102 % of control
T/C (dose: 10.0 mg/kg/injection, schedule: Q01DX009 (ip), vehicle: Klucel (hydroxypropylcellulose) (HPC)): 109 % of control

CC(C)(C)C(=O)C1C(=O)c2ccccc2C1=O
T/C (dose: 1.56 mg/kg/injection, schedule: Q04DX003 (ip), vehicle: Klucel (hydroxypropylcellulose) (HPC)): 98 % of control
T/C (dose: 3.12 mg/kg/injection, schedule: Q04DX003 (ip), vehicle: Klucel (hydroxypropylcellulose) (HPC)): 89 % of control

COC(=O)[C@H](C)[C@@H]1CC[C@](C)(CCC2=C(C)CCCC2(C)C)OO1
T/C (dose: 4.38 mg/kg/injection, schedule: Q01DX005 (ip), vehicle: saline + Tween-80 + alcohol): 93 % of control
T/C (dose: 8.75 mg/kg/injection, schedule: Q01DX005 (ip), vehicle: saline + Tween-80 + alcohol): 100 % of control
T/C (dose: 17.5 mg/kg/injection, schedule: Q01DX005 (ip), vehicle: saline + Tween-80 + alcohol): 94 % of control
T/C (dose: 35.0 mg/kg/injection, schedule: Q01DX005 (ip), vehicle: saline + Tween-80 + alcohol): 107 % of control

Cc1c(C(=N)C(C#N)C#N)c(=N)oc2c1ccc1ccccc12
T/C (dose: 6.25 mg/kg/injection, schedule: Q01DX009 (ip), vehicle: saline with Tween-80): 94 % of control and 97 % of control
T/C (dose: 12.5 mg/kg/injection, schedule: Q01DX009 (ip), vehicle: saline with Tween-80): 86 % of control and 96 % of control
T/C (dose: 25.0 mg/kg/injection, schedule: Q01DX009 (ip), vehicle: saline with Tween-80): 115 % of control and 87 % of control and 95 % of control
T/C (dose: 50.0 mg/kg/injection, schedule: Q01DX009 (ip), vehicle: saline with Tween-80): 123 % of control and 94 % of control (2×)
T/C (dose: 100.0 mg/kg/injection, schedule: Q01DX009 (ip), vehicle: saline with Tween-80): 100 % of control and 92 % of control
T/C (dose: 200.0 mg/kg/injection, schedule: Q01DX009 (ip), vehicle: saline with Tween-80): 116 % of control

O=C1CCN=C2C(=O)c3ccccc3C(O)=C12
T/C (dose: 25.0 mg/kg/injection, schedule: Q01DX009 (ip), vehicle: Klucel (hydroxypropylcellulose) (HPC)): 115 % of control
T/C (dose: 50.0 mg/kg/injection, schedule: Q01DX009 (ip), vehicle: Klucel (hydroxypropylcellulose) (HPC)): 123 % of control
T/C (dose: 100.0 mg/kg/injection, schedule: Q01DX009 (ip), vehicle: Klucel (hydroxypropylcellulose) (HPC)): 121 % of control

COC1CC(N)C(OS(C)(=O)=O)C(C)O1 (stereo not drawn)
T/C (dose: 12.5 mg/kg/injection, schedule: Q04DX003 (ip), vehicle: water): 99 % of control
T/C (dose: 25.0 mg/kg/injection, schedule: Q04DX003 (ip), vehicle: water): 99 % of control
T/C (dose: 50.0 mg/kg/injection, schedule: Q04DX003 (ip), vehicle: water): 114 % of control
T/C (dose: 100.0 mg/kg/injection, schedule: Q04DX003 (ip), vehicle: water): 114 % of control
T/C (dose: 200.0 mg/kg/injection, schedule: Q04DX003 (ip), vehicle: water): 105 % of control

Cc1cc(NC(=O)C(=O)CC(=O)c2ccc(Cl)s2)no1
T/C [1]: 99 % of control
T/C (dose: 200.0 mg/kg/injection, schedule: Q04DX002 (ip), vehicle: saline with Tween-80): 104 % of control
T/C (dose: 400.0 mg/kg/injection, schedule: Q04DX002 (ip), vehicle: saline with Tween-80): 107 % of control

CC(C)Oc1nc(N2CCNCC2)nc2c1CCCC2
T/C (dose: 15.0 mg/kg/injection, schedule: Q01DX005 (ip), vehicle: saline): 101 % of control
T/C (dose: 30.0 mg/kg/injection, schedule: Q01DX005 (ip), vehicle: saline): 104 % of control
T/C (dose: 60.0 mg/kg/injection, schedule: Q01DX005 (ip), vehicle: saline): 111 % of control and 90 % of control

C/C(=N\NC(=S)N1CCCC1)c1cnccn1
T/C (dose: 6.25 mg/kg/injection, schedule: Q01DX005 (ip), vehicle: saline with Tween-80): 100 % of control
T/C (dose: 12.5 mg/kg/injection, schedule: Q01DX005 (ip), vehicle: saline with Tween-80): 103 % of control
T/C (dose: 25.0 mg/kg/injection, schedule: Q01DX005 (ip), vehicle: saline with Tween-80): 100 % of control

Nc1n[n+](-c2ccccc2)no1
T/C (dose: 1.56 mg/kg/injection, schedule: Q01DX009 (ip), vehicle: water): 110 % of control
T/C (dose: 1.56 mg/kg/injection, schedule: Q03HX015 (ip), vehicle: water): 117 % of control
T/C (dose: 3.12 mg/kg/injection, schedule: Q01DX005 (ip), vehicle: water): 104 % of control
T/C (dose: 3.12 mg/kg/injection, schedule: Q03HX015 (ip), vehicle: water): 119 % of control
T/C (dose: 3.13 mg/kg/injection, schedule: Q01DX009 (ip), vehicle: water): 104 % of control and 108 % of control and 117 % of control
T/C (dose: 3.13 mg/kg/injection, schedule: Q03HX015 (ip), vehicle: water): 115 % of control
T/C (dose: 6.25 mg/kg/injection, schedule: Q01DX009 (ip), vehicle: saline): 123 % of control
T/C (dose: 6.25 mg/kg/injection, schedule: Q01DX009 (ip), vehicle: water): 117 % of control and 118 % of control
T/C (dose: 6.25 mg/kg/injection, schedule: Q03HX003 (ip), vehicle: water): 112 % of control
T/C (dose: 12.5 mg/kg/injection, schedule: Q03HX003 (ip), vehicle: water): 117 % of control
T/C (dose: 25.0 mg/kg/injection, schedule: Q01DX001 (ip), vehicle: water): 104 % of control
T/C (dose: 25.0 mg/kg/injection, schedule: Q01DX009 (ip), vehicle: saline): 178 % of control
T/C (dose: 25.0 mg/kg/injection, schedule: Q01DX009 (ip), vehicle: water): 169 % of control and 189 % of control and 195 % of control
T/C (dose: 25.0 mg/kg/injection, schedule: Q03HX003 (ip), vehicle: water): 117 % of control
T/C (dose: 25.0 mg/kg/injection, schedule: Q03HX015 (ip), vehicle: water): 161 % of control and 183 % of control
T/C (dose: 50.0 mg/kg/injection, schedule: Q01DX001 (ip), vehicle: water): 120 % of control
T/C (dose: 50.0 mg/kg/injection, schedule: Q01DX009 (ip), vehicle: saline): 214 % of control
T/C (dose: 50.0 mg/kg/injection, schedule: Q03HX003 (ip), vehicle: water): 123 % of control
T/C (dose: 100.0 mg/kg/injection, schedule: Q01DX001 (ip), vehicle: water): 114 % of control

Cc1cccc(NC(=O)C(=O)CC(=O)c2ccc([N+](=O)[O-])cc2)c1C
T/C [2]: 105 % of control
T/C [3]: 108 % of control
T/C [4]: 106 % of control

COC(=O)/C(C(C)=O)=C(\OC(C)=O)c1ccc(OC)c(OC)c1
T/C (dose: 60.0 mg/kg/injection, schedule: Q01DX005 (ip), vehicle: saline with Tween-80): 94 % of control
T/C (dose: 120.0 mg/kg/injection, schedule: Q01DX005 (ip), vehicle: saline with Tween-80): 100 % of control
T/C (dose: 240.0 mg/kg/injection, schedule: Q01DX005 (ip), vehicle: saline with Tween-80): 92 % of control

COC(=O)/C(C)=N/SC(c1ccccc1)(c1ccccc1)c1ccccc1
T/C [2]: 102 % of control
T/C [3]: 104 % of control
T/C [4]: 98 % of control
